Measured values as given in PMC10610105, “Designing and Exploration of the Biological Potentials of Novel Centrosymmetric Heteroleptic Copper(II) Carboxylates” (Pharmaceuticals, 2023).
Converted amounts (≈) assume the structure as drawn.

Assays:
α-amylase = α-amylase enzyme inhibition assay; type: biochemical, Saccharomyces cerevisiae; conditions: for IC50: α-amylase inhibition
Method: A reported protocol with slight modification was used to perform the α-amylase enzyme inhibition assay. A stock solution (1 unit/mL) was prepared by dissolving α-amylase solution from Saccharomyces cerevisiae in 50 mM potassium phosphate buffer (pH 6.8), and for the substrate, in the same buffer 20 mM p-nitrophenyl-α-D-glucopyranoside (PNG) was prepared. The assay was conducted in triplicate using 96-well plates. […] For the experiments, each well contained phosphate buffer 65 μL (50 mM, pH 6.8), PNG 25 μL, α-amylase enzyme 5 μL (0.05 U/mL), and test sample 5 μL. The plates were allowed to incubate at 37 °C for 30 min, followed by the addition of 100 μL sodium bicarbonate (0.5 mM) as a stopping agent.
By using a microplate reader (BioTek Elx-800, Winooski, VT, USA), absorbance was recorded at 405 nm. The percent inhibition was calculated using the formula: %Inhibition=Acontrol−Asample/Acontrol × 100 where Acontrol is the control absorbance and Asample is the sample absorbance.

[1] = system: SS-DNA (salmon sperm DNA); experiment: DNA binding study by UV-visible absorption spectroscopy; conditions: complex-DNA interaction, calculated
Method: UV-visible absorption measurements can be used to monitor changes occurring in λmax values (red or blue shifts) and absorption intensity (hyper- or hypochromism) of either a test compound or DNA as a result of any possible interaction. These changes can be used to find some details about the mode of interaction of metal complexes with DNA [25]. In the present study, absorption titrations were made with a fixed concentration (200 μM) of complexes against varying concentrations (5-30 μM) of SS-DNA. The extent of complex-DNA binding was assessed by calculating intrinsic binding constant (Kb) values using the well-known Benesi-Hildebrand equation [26]. Ao/A-A0=ε[…]+1/Kb[DNA] where Kb is the binding constant, A is the absorbance of complex-DNA adduct, Ao is the absorbance of pure complex solution, [DNA] is the concentration of SS-DNA in mol/L, εH-G is the molar absorption co-efficient of each complex-DNA adduct, and εG is the molar absorption co-efficient of pure complex. […] Ao/A-Ao along the ordinate, as shown in Figure 3B and Figure 4B for complexes 1 and 2, respectively. […] The SS-DNA solution (ε = 6600 M^-1 cm^-1 at 260 nm) concentration was determined via absorption spectroscopy. The complex solutions (200 μM) were made in aqueous DMSO (1:4). […] To eliminate the absorbance of DNA, equivalent SS-DNA solutions were added to the complex and reference solutions. […]

[2] = Hydroxyl radical scavenging assay; conditions: for IC50: hydroxyl radical scavenging, read-out: IC50 (µM) ± SEM; for % Inhibition: hydroxyl radical
Method: (§1) DPPH and hydroxyl (•OH) radical scavenging assays based on spectroscopic measurements are simple in vitro methods used to evaluate the antioxidant potential of test compounds. The promising results of these assays could be exploited as preliminary tests in search of drugs with potential anticancer, anti-aging, and anti-inflammatory activities. Within this context, the abilities of the free ligand acid (HL) and synthesized complexes (1 and 2) to scavenge DPPH and hydroxyl radicals were determined in order to evaluate their potential antioxidant ability compared to that of vitamin C as a reference compound.
The hydroxyl radical scavenging activities of the free ligand acid and synthesized complexes (1 and 2) were evaluated according to a reported method. Different concentrations (15, 30, 60, 120, and 240 μM) of the free ligand acid and complexes were mixed with 0.4 M phosphate buffer (pH 6.6) (1000 μL), 0.1% hydrogen peroxide (100 μL), 3.7 mM o-phenanthroline (200 μL), and 7.5 mM ferrous sulfate (100 μL). The mixtures were diluted with distilled water to 3000 μL before incubating for 30 min at room temperature. The absorbance of mixtures was recorded at 510 nm using ascorbic acid as a standard.
The %scavenging was calculated using the following formula: %scavenging=As−Ac/Ab−As×100 where As, Ac, and Ab are the observed absorbance values of the sample, control, and blank, respectively.

[3] = system: SS-DNA (salmon sperm DNA); experiment: DNA binding study by viscometry; conditions: SS-DNA 87.72 μM, compound 5–30 μM, Ostwald viscometer
Method: The viscosity of the SS-DNA solution (87.72 μM) in the absence and the presence of complexes 1 and 2 (5–30 μM) was measured using an Ostwald viscometer. For accuracy, the readings were made in triplicate for each sample, and then an average flow rate was calculated. Data are presented as (η/ηo)^1/3 vs. binding ratio ® of [complex]/[DNA], where η is the relative viscosity of the complex-DNA adduct, and ηο is the relative viscosity of DNA alone. The relative viscosity values for SS-DNA in the presence (η) and the absence (ηο) of the complexes were calculated using the relation η = (t − to)/to, where t is the observed flow time in seconds.

[4] = DPPH free radical scavenging assay; conditions: for IC50: DPPH radical scavenging, read-out: IC50 (µM) ± SEM; for % Inhibition: DPPH
Method: as §1
The in vitro DPPH free radical scavenging activities of the free ligand acid and complexes 1 and 2 were assessed, as per a reported procedure with slight modification in the protocol.
Different concentrations (15, 30, 60, 120, and 240 μM) of the free ligand acid and complexes were mixed with 1000 μL of 255 μM DPPH solution made in ethanol. The mixture solutions were shaken and incubated in the dark for 30 min at room temperature. The absorbance of the solutions was measured at 518 nm using a UV-VIS spectrophotometer. Ascorbic acid of fixed concentration was used as a positive control. The readings were made in triplicate. Percentage inhibition of the test compounds was evaluated by using the formula: %scavenging=Ac−As/Ac×100 where Ac and As are the observed absorbance values of the control and the sample, respectively.

| SMILES | % α-Amylase Activity (α-amylase; concentration 31.25 µg/mL) | % α-Amylase Activity (α-amylase; concentration 62.5 µg/mL) | % α-Amylase Activity (α-amylase; concentration 125 µg/mL) | % α-Amylase Activity (α-amylase; concentration 250 µg/mL) | % α-Amylase Activity (α-amylase; concentration 500 µg/mL) | ΔG [1] | IC50 [2] | % Inhibition ([2]; dose conc. 15 µM) | % Inhibition ([2]; dose conc. 30 µM) | % Inhibition ([2]; dose conc. 60 µM) | % Inhibition ([2]; dose conc. 120 µM) | % Inhibition ([2]; dose conc. 240 µM) | effect on the relative viscosity of the DNA [3] | IC50 [4] | % Inhibition ([4]; dose conc. 15 µM) | % Inhibition ([4]; dose conc. 30 µM) | % Inhibition ([4]; dose conc. 60 µM) | % Inhibition ([4]; dose conc. 120 µM) | % Inhibition ([4]; dose conc. 240 µM) | IC50 (α-amylase) |
| --- | --- | --- | --- | --- | --- | --- | --- | --- | --- | --- | --- | --- | --- | --- | --- | --- | --- | --- | --- | --- |
| C[C@H]1O[C@H](O[C@H]2[C@H](O)[C@@H](O)[C@@H](O[C@H]3[C@H](O)[C@@H](O)C(O)O[C@@H]3CO)O[C@@H]2CO)[C@H](O)[C@@H](O)[C@@H]1N[C@H]1C=C(CO)[C@@H](O)[C@H](O)[C@H]1O (stereo partly shown) [Acrabose, acarbose, reference compound] | 14.34% | 26.42% | 46.39% | 68.61% | 84.33% | – | – | – | – | – | – | – | – | – | – | – | – | – | – | – |
| Cc1cccnc1.Cc1cccnc1.O=C([O-])Cc1ccc(F)c(F)c1.O=C([O-])Cc1ccc(F)c(F)c1.O=C([O-])Cc1ccc(F)c(F)c1.O=C([O-])Cc1ccc(F)c(F)c1.[Cu+2].[Cu+2] [complex 2, [Cu2(3,4-F2C6H3CH2COO)4(3-CH3py)2]] | 5.33% | 8.33% | 20.46% | 38.00% | 50.30% | -32.67 kJ/mol | 308 ± 6.89 µM | 0.04% | 1.30% | 14.50% | 25.00% | 35.99% | pronounced increase | 365 ± 5.31 µM | 4.045% | 5.150% | 14.975% | 21.500% | 32.550% | 455.32 µg/mL |
| O=C1O[C@H]([C@@H](O)CO)C(O)=C1O [Vit. C, ascorbic acid, reference compound] | – | – | – | – | – | – | 162 ± 12.1 µM | 6.78% | 10.49% | 16.87% | 43.87% | 70.55% | – | 127 ± 14 µM | 7.09% | 15.09% | 29.98% | 58.09% | 82.35% | – |
| O=C(O)Cc1ccc(F)c(F)c1 [HL, 3,4-difluorophenylacetic acid] | 1.72% | 1.9% | 9.22% | 19.67% | 32.95% | – | 1771 ± 1.17 µM | 0.009% | 1.050% | 1.070% | 2.770% | 6.660% | no effect | 1010 ± 1.99 µM | 1.09% | 3.05% | 5.07% | 7.77% | 12.55% | 728.17 µg/mL (≈ 4.23 mM) |
| Cc1ccccn1.Cc1ccccn1.O=C([O-])Cc1ccc(F)c(F)c1.O=C([O-])Cc1ccc(F)c(F)c1.O=C([O-])Cc1ccc(F)c(F)c1.O=C([O-])Cc1ccc(F)c(F)c1.[Cu+2].[Cu+2] [complex 1, [Cu2(3,4-F2C6H3CH2COO)4(2-CH3py)2]] | 6.03% | 7.24% | 22.24% | 41.12% | 51.22% | -29.20 kJ/mol | 283 ± 7.01 µM | 0.05% | 10.00% | 15.04% | 28.32% | 39.99% | pronounced increase | 214 ± 7.77 µM | 8.07% | 15.77% | 25.39% | 39.00% | 51.12% | 437.73 µg/mL |
